Data from ChEMBL document CHEMBL5236572, “Bioactive Aurones, Indanones, and Other Hemiindigoid Scaffolds: Medicinal Chemistry and Photopharmacology Perspectives” (J Med Chem, 2022).

Tests used:
[1] = target: T1, Tyrosinase (Agaricus bisporus, UniProt O42713); assay: Inhibition of mushroom tyrosinase using L-tyrosine as substrate incubated for 30 mins by spectrophotometric analysis
T1 sequence (O42713 whole entry): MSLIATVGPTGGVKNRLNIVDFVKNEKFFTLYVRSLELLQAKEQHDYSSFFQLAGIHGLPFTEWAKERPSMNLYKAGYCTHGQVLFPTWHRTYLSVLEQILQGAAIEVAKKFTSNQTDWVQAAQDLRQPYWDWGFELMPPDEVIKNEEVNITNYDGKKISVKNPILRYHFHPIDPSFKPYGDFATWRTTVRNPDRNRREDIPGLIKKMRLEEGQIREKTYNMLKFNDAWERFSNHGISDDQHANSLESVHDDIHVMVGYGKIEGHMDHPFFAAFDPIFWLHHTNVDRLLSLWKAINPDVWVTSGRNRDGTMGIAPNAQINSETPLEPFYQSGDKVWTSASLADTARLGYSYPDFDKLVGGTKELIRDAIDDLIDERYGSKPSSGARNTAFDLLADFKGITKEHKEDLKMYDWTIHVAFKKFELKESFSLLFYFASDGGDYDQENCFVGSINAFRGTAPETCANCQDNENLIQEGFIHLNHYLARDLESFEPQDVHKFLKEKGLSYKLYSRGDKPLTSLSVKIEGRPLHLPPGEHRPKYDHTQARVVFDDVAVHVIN

[2] = target: Serine/threonine-protein kinase pim-1 (Homo sapiens, UniProt P11309); assay: Inhibition of PIM1 (unknown origin) using poly-Glu-Tyr (4:1) as substrate in presence of [gamma-33P-ATP] incubated for 2 hrs by radiometric kinase assay
Chain of Serine/threonine-protein kinase pim-1 (P11309 whole entry): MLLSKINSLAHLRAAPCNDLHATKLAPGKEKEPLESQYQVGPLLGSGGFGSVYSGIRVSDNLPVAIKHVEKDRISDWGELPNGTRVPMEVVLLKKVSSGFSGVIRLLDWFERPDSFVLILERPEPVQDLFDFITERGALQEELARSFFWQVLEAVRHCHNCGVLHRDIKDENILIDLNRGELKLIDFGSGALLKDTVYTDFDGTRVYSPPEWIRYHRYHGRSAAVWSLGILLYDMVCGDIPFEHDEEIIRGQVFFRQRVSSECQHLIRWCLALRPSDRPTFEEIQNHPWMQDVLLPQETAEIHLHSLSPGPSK

[3] = Selectivity ratio of IC50 for antiproliferative activity against human MES-SA cells to IC50 for antiproliferative activity against doxorubicin resistant human MES-SA/Dx5 cells; type: functional
[4] = target: Serine/threonine-protein kinase AKT (Homo sapiens, UniProt P31751+Q9Y243+P31749); assay: Inhibition of AKT (unknown origin); type: protein assay
[5] = tested on: Ehrlich; assay: Antitumor activity against mouse Ehrlich ascites carcinoma allografted in Swiss albino mouse assessed as tumor growth inhibition at 20 mg/kg, ip for 12 days; type: functional; conditions: 288 h, time 12 day, read-out: TGI
[6] = target: T2, Amine oxidase [flavin-containing] A (Homo sapiens, UniProt P21397); assay: Inhibition of recombinant human MAO-A assessed as inhibition of 4-hydroxyquinoline formation using kynuramine as substrate incubated for 20 mins by fluorescence assay
T2 sequence (P21397 whole entry): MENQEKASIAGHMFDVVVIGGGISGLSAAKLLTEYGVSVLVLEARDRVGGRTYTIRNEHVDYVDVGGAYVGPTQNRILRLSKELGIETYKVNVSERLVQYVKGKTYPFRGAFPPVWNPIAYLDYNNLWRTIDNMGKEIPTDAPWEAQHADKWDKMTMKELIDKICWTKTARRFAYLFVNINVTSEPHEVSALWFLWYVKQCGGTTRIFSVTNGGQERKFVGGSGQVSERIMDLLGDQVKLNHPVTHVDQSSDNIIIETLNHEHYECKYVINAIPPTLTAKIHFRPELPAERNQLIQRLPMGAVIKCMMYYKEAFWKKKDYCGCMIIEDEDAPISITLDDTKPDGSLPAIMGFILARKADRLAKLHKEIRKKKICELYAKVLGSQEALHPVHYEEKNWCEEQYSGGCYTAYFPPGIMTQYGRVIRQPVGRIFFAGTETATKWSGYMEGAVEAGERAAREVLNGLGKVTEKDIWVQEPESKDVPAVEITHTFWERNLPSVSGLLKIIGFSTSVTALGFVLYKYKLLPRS

[7] = target: T3, Amine oxidase [flavin-containing] B (Homo sapiens, UniProt P27338); assay: Inhibition of recombinant human MAO-B assessed as inhibition of 4-hydroxyquinoline formation using kynuramine as substrate incubated for 20 mins by fluorescence assay
T3 sequence (P27338 whole entry): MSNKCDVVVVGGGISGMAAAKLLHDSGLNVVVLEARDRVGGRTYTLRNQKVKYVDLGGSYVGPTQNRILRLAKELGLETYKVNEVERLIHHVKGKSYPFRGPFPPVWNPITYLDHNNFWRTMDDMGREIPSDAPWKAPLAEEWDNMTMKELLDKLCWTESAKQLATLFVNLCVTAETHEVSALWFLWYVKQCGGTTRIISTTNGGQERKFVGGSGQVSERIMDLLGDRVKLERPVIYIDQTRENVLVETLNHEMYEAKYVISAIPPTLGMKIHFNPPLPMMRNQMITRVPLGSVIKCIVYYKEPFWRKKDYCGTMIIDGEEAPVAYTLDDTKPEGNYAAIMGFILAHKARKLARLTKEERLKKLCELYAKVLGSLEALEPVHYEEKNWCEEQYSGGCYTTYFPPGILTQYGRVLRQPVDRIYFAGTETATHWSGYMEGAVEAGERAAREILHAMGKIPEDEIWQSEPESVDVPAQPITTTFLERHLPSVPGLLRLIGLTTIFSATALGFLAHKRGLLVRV

[8] = species on record: Homo sapiens; assay: Selectivity index, ratio of IC50 for inhibition of recombinant human MAO-A to IC50 for inhibition of recombinant human MAO-B
[9] = tested on: MCF7; assay: Antiproliferative activity against human MCF7 cells assessed as reduction in cell viability incubated for 24 hrs by soft agar assay; type: functional, cell-based; conditions: MCF7, 24 h
[10] = tested on: MDA-MB-231; assay: Antiproliferative activity against human MDA-MB-231 cells assessed as reduction in cell viability incubated for 24 hrs by soft agar assay; type: functional, cell-based; conditions: MDA-MB-231, 24 h
[11] = Antioxidant activity assessed as DPPH radical scavenging activity at 100 uM measured for 20 mins by spectrophotometric analysis; type: functional
[12] = Antioxidant activity assessed as DPPH radical scavenging activity at 100 uM measured for 60 mins by spectrophotometric analysis; type: functional
[13] = Antioxidant activity assessed as ABTS radical scavenging activity at 100 uM incubated for 12 to 16 hrs in dark; type: functional; conditions: time 12-16 hrs
[14] = Inhibition of AAPH induced lipid peroxidation; conditions: dose or concentration not given here
[15] = tested on: MES-SA; assay: Antiproliferative activity against human MES-SA cells assessed as reduction in cell viability incubated for 72 hrs by PrestoBlue cell viability assay; type: functional, cell-based
[16] = tested on: MES-SA/Dx5; assay: Antiproliferative activity against doxorubicin resistant human MES-SA/Dx5 cells assessed as reduction in cell viability incubated for 72 hrs by PrestoBlue cell viability assay; type: functional, cell-based; conditions: MES-SA/Dx5, 72 h
[17] = target: Tubulin (Sus scrofa, UniProt P02554+P02550); assay: Inhibition of porcine brain tubulin polymerization preincubated for 1 mins followed by GTP addition and measured for 60 mins at 1 min interval by fluorescence assay
[18] = tested on: HeLa; assay: Antiproliferative activity against human HeLa cells assessed as reduction in cell viability incubated for 48 hrs by MTT assay; type: functional, cell-based
[19] = tested on: A549; assay: Antiproliferative activity against human A549 cells assessed as reduction in cell viability incubated for 48 hrs by MTT assay; type: functional, cell-based; conditions: A549, 48 h
[20] = tested on: Bel-7402; assay: Antiproliferative activity against human Bel-7402 cells assessed as reduction in cell viability incubated for 48 hrs by MTT assay; type: functional, cell-based; conditions: Bel-7402, 48 h
[21] = tested on: PC-3; assay: Antiproliferative activity against human PC-3 cells assessed as reduction in cell viability incubated for 48 hrs by MTT assay; type: functional, cell-based; conditions: PC-3, 48 h
[22] = tested on: K562; assay: Antiproliferative activity against human K562 cells assessed as reduction in cell viability incubated for 48 hrs by MTT assay; type: functional, cell-based; conditions: K562, 48 h
[23] = tested on: Human immunodeficiency virus 1; assay: Antiviral activity against HIV-1 infected in human C8166 cells assessed as reduction in virus-induced cytopathic effect by MTT assay; type: functional, organism-based; conditions: Human immunodeficiency virus 1, C8166
[24] = target: Amyloid-beta precursor protein (Homo sapiens, UniProt P05067); assay: Binding affinity to human brain homogenate amyloid beta by radioligand competition binding assay; type: tissue-based
Chain of Amyloid-beta precursor protein (P05067 whole entry): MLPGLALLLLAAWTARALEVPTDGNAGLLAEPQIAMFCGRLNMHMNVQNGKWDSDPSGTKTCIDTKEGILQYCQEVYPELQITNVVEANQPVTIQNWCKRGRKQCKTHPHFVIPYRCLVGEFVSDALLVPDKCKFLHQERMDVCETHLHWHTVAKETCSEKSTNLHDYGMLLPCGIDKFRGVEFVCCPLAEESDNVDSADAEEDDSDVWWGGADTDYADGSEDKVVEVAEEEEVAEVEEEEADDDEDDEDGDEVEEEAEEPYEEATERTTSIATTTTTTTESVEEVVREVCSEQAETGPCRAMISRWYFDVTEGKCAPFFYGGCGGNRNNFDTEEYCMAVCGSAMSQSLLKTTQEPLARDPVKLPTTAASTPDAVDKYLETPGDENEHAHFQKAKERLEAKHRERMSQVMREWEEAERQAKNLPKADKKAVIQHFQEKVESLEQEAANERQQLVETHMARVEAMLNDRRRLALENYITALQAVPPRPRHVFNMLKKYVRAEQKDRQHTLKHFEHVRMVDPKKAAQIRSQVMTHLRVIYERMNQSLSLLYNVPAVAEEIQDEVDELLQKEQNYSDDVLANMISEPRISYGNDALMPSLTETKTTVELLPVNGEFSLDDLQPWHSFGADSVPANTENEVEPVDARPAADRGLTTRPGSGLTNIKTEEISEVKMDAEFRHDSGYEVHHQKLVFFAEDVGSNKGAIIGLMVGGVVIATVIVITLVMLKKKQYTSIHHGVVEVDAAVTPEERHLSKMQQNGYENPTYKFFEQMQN

`O=C1/C(=C/c2ccc(O)cc2O)Cc2ccc3ccccc3c21` showed an IC50 [1] of 150 nM.
For `O=C1/C(=C/c2cc(-c3ccncc3)[nH]n2)Oc2cc(O)cc(O)c21`, the IC50 [2] was 18000 nM.
For `CCCCc1ccc(/C=C2\Nc3cc(OC)cc(OC)c3C2=O)cc1`, the “Ratio IC50” value [3] was 4.8.
`Cc1ccc(C)c2c1C/C(=C\c1ccccc1)C2=O` gave an IC50 [4] of 207 nM.
With `COc1cc(C2/C(=C/c3ccc4c(c3)OCO4)C(=O)c3cc(OC)c(OC)c(OC)c32)cc(OC)c1OC` (stereo unspecified) the inhibition in vivo at 20 mg/kg [5] was 45.5%.
For `COc1ccc2c(c1)O/C(=C\n1ccc3ccccc31)C2=O`, the IC50 [6] was over 100000 nM, the IC50 [7] was 2.6 nM and the Ratio IC50 [8] was over 38000.
`COc1cc(C2/C(=C/c3ccc(F)cc3)C(=O)c3cc(OC)c(OC)c(OC)c32)cc(OC)c1OC` (stereo unspecified) gave an IC50 [9] of 27000 nM and an IC50 [10] of 27000 nM.
For `O=C1/C(=C/c2ccc(O)c(O)c2)Oc2cc(O)ccc21`, the Activity [11] was 89%, the Activity [12] was 89% and the Activity [13] was 71%. For the same compound, the inhibition [14] was 53%.
With `COc1cc(OC)c2c(c1)O/C(=C\c1ccc(N(C)C)cc1)C2=O` the IC50 [15] was 60000 nM, the IC50 [16] was 15000 nM and the “Ratio IC50” value [3] was 4.
In the case of `COc1cc2c(c(OC)c1OC)C/C(=C\c1cccc3[nH]ccc13)C2=O`, the IC50 [17] is reported as 1990 nM, the IC50 [18] is reported as 30 nM and the IC50 [19] is reported as 30 nM. The IC50 [20] was 30 nM, the IC50 [21] was 30 nM and the IC50 [22] was 30 nM.
`O=C1/C(=C/c2ccc(O)c(O)c2)Oc2c1ccc(O)c2O` gave an EC50 [23] of 12000 nM.
With `CN(C)c1ccc(/C=C2\Nc3ccc(I)cc3C2=O)cc1` the Ki [24] was 240 nM.
In the case of `CN(C)c1ccc(/C=C2\Cc3cc(I)ccc3C2=O)cc1`, the Ki [24] is reported as 100 nM.
